This experiment deals with Plasmodium falciparum. The experiment is described as follows: GSK_TCMDC: Inhibition of Plasmodium falciparum 3D7 in whole erythrocytes, using parasite LDH activity as an index of growth. In kind it is functional, organism-based. The following applies: Plasmodium falciparum, 3D7.

In ChEMBL document CHEMBL1157539, “Thousands of chemical starting points for antimalarial lead identification” (Nature, 2010) one finds XC50 data, which are given here for 85 compounds.

The compound `COc1ccc2c(OC)c(CNCCCCCCNCc3ccc4cc(OC)ccc4c3OC)ccc2c1` yielded an XC50 of 920 nM.
In turn, `CC(CN(C)C)C(=O)Nc1cccc(-c2cccc(-c3nc4ccccc4[nH]3)c2)c1` (stereo not given) displayed an XC50 of 1060 nM.
The same measure for `CCCCCn1c(Sc2ccc(C#N)c([N+](=O)[O-])c2)nnc1-c1ccccc1`: 860 nM; for `CC(=NNC(=N)N)c1ccc2c(ccc3ccccc32)c1`: 833 nM.
The same measure for `Cc1ccc(CNC(=O)[C@H](CCCN)Nc2nc(Nc3ccccc3)ncc2C)cc1`: 1530 nM; for `Cc1ccccc1C(=O)Nc1cccc(-c2nc3ncccn3c2C)c1`: 765 nM; for `CCN1CCN(c2cc(C)c3cc(NC(=O)C=Cc4cccc(OC)c4OC)ccc3n2)CC1`: 697 nM.
The same measure for `Cc1cccc2nc(-c3ccc(-c4ccc(NC(=O)Nc5ccc(F)c(F)c5F)cc4)s3)[nH]c12`: 176 nM.
`COc1c(C2CCN(CCCCNC(=O)c3ccc(NC(=O)c4ccc(C#N)cc4)cc3)CC2)ccc2c1CCCC2` returned an XC50 of 292 nM.
For `COc1ccc2nccc([C@@H](O)CN3CCC(NC(=O)C(c4cc5ccccc5o4)N4CCN(c5ccccc5OC)CC4)CC3)c2c1` (stereo not given in full), the XC50 is 308 nM.
Turning to `CC[C@@H]([C@@H](CC(C)C)C(=O)N[C@@H](CCCCNC(=O)OCc1ccccc1)C(=O)Nc1ccccn1)N(O)C=O`, the XC50 was determined as 108 nM.
The same measure for `Cc1nc(C)c(-c2cccc(Oc3ccc(Cl)cc3)c2)c(O)c1Br`: 73.6 nM; for `CCCCCCNC(=O)C1Cc2c([nH]c3cc(Cl)ccc23)C2(CCN(CCC)CC2)N1` (stereo not given): 880 nM.
The same measure for `COc1ccccc1CCCN1C(=O)C(c2ccccc2)(c2ccccc2)N=C1N`: 265 nM; for `O=C(NC1CCN(Cc2ccc(Cl)cc2)CC1)c1cn(-c2ccccc2)nc1-c1cccnc1`: 972 nM; for `COc1cc(CNCCCNc2cc(=O)c3ccccc3[nH]2)c2c(c1)C(C)CN2C(=O)OC(C)(C)C` (stereo not given): 734 nM.
The same measure for `C=CCc1cccc(C)c1OCCCON1C(=N)N=C(N)NC1(C)C`: 3.2 nM.
For `CN(C)CCCOc1c(C(C)(C)C)cc(-c2cc(C(C)(C)C)c(OCCCN(C)C)c(C(C)(C)C)c2)cc1C(C)(C)C`, the XC50 came to 270 nM.
The compound `Nc1cc(/C=C/c2ccc([N+](=O)[O-])s2)nc2ccccc12` had an XC50 of 760 nM.
`COc1c(C2CCN(CCCCNC(=O)c3cc(-c4ccc(Cl)cc4)[nH]c3C)CC2)ccc2c1CCCC2` displayed an XC50 of 970 nM.
With `Cn1cncc1-c1ccc2ncnc(Nc3ccc4c(cnn4Cc4ccccc4)c3)c2c1`, the XC50 was determined as 180 nM.
As for `O=C(Cn1c(CCc2cccc(F)c2F)nc(=O)c2ccccc21)N(CCN1CCCC1)Cc1ccc(-c2ccc(C(F)(F)F)cc2)cc1`, the XC50 is 711 nM.
The same measure for `Cc1[nH]c(C)c(-c2ccc(-c3ccccc3C(F)(F)F)nc2)c(=O)c1Br`: 168 nM.
The same measure for `COc1ccc2nccc([C@H](O)CN3CCC(NCc4cc(C)c5c(c4)OCCO5)CC3)c2n1`: 902 nM; for `COc1ccc2nccc(N3CCC(SCCNCc4ccc5c(n4)NC(=O)CO5)C3)c2n1` (stereo not given): 801 nM.
The same measure for `CC(C)c1cc(Oc2c(I)cc(CCCc3ncc[nH]3)cc2I)ccc1O`: 1120 nM.
For `CCOC(=O)c1c(CNc2ccncc2)n(C)c2cc(Br)c(OC(C)=O)cc12`, the XC50 is 370 nM.
`COc1ccc([N+](=O)[O-])cc1N(Cc1ccccc1-c1ccccc1)S(=O)(=O)c1ccc(C(F)(F)F)cc1[N+](=O)[O-]` gave an XC50 of 1050 nM.
The same measure for `CN(C)CCOc1cc(NC(=O)Nc2ccc(Oc3ccccc3)cc2)ccc1I`: 890 nM.
Compound `Nc1cccc(CNCc2ccc(-c3cccc(-c4nc5cc(F)ccc5[nH]4)c3)cc2)c1` displayed an XC50 of 213 nM.
As to `COc1ccc2nccc(N3CCC(O)(CCNCc4ccc5c(n4)NC(=O)CO5)CC3)c2n1`, the XC50 stood at 819 nM.
The same measure for `CCOc1cc(CC)ccc1C1CCN(CCN2CCC(NC(=O)c3ccc(-c4ccc(C#N)cc4)cc3)CC2)CC1`: 610 nM; for `CCOc1ccc2[nH]c(-c3ccccc3)cc(=NN=Cc3ccncc3)c2c1`: 149 nM.
`COc1ccc(NCCCNc2ccnc3ccccc23)cc1` yielded an XC50 of 966 nM.
The same measure for `CCN(CC)CCCC(C)N=c1cc(C=Cc2ccc([N+](=O)[O-])cc2)[nH]c2ccc(OC)cc12` (stereo not given): 574 nM.
`COc1ccc(Cl)cc1C(=O)Nc1ccc(-c2nc3ccccc3[nH]2)cc1` came in with an XC50 of 774 nM.
The same measure for `Oc1ccc(-c2nc3c4cc(I)ccc4c4ccc(I)cc4c3[nH]2)cc1`: 972 nM; for `Cc1ccccc1C1CCN(C2CCC(NC(=O)/C=C/c3ccc(OC(F)(F)F)cc3)CC2)CC1` (stereo not given): 857 nM.
Take `CCN(CCCN1CCCCC1)c1cc(C)nc(Nc2cc(C)ccc2C)n1`: the XC50 turned out to be 664 nM.
The same measure for `Cc1noc(C)c1S(=O)(=O)N(C)Cc1ccc(-c2ccc(Cl)cc2)o1`: 362 nM.
The compound `COc1cccc2c1CCN(CCN1CCC(CNC(=O)c3ccc(-c4ccc(C#N)cc4)cc3)CC1)C2` displayed an XC50 of 758 nM.
The same measure for `C=C1C[C@@H](n2cnc3c(NC(=O)c4ccccc4)ncnc32)[C@@H](F)[C@@H]1OC(c1ccccc1)(c1ccccc1)c1ccccc1`: 145 nM.
The same measure for `Cc1nc(C)c(-c2ccc(Oc3cccc(OC(F)(F)F)c3)cc2)c(O)c1Br`: 17.1 nM; for `COc1cc(Nc2ncnc3cc(OC)c(OC)cc23)cc([N+](=O)[O-])c1`: 810 nM.
Regarding `CC[C@H](NC(=O)c1c(CC2CCN(CC(C)=O)CC2)c(-c2ccccc2)nc2ccccc12)c1ccccc1`, the XC50 turned out to be 381 nM.
The same measure for `COc1ccccc1C1CCN(CCCCNC(=O)c2ccc(NC(=O)c3ccc(Cl)cc3)cc2)CC1`: 244 nM; for `CC(C)(C)c1ccc(S(=O)(=O)Nc2cc(Cl)ccc2Cn2ccc(N3CCNCC3)nc2=O)cc1`: 827 nM.
Consider `Cn1c(Nc2nnc(C3CC3)s2)nc2cc(Nc3ccnc(Nc4cccc(CS(C)(=O)=O)c4)n3)ccc21`, for which the XC50 was determined as 681 nM.
The same measure for `COc1ccc(CCCc2nc(N)nc(N)c2-c2ccc(Cl)cc2)cc1`: 44.2 nM; for `CN(C)Cc1cc(Nc2ccnc3cc(Cl)ccc23)ccc1O`: 9.49 nM; for `CC(=O)Nc1ccc(S(=O)(=O)N(Cc2cccc(Oc3ccccc3)c2)C2CCN(C/C=C(\C)CCC=C(C)C)CC2)cc1`: 192 nM.
As to `ON=C1CCc2cc(-c3nc(-c4ccc(OCCN5CCCCC5)cc4)[nH]c3-c3ccncc3)ccc21`, the XC50 is 804 nM.
`C=CCNC(=O)CCCNC(=N)N` registered an XC50 of 717 nM.
The same measure for `COc1cc(F)c2ncc(Cl)c([C@@H](O)CN3CCC(NCc4cc5c(cn4)OCCO5)CC3)c2c1`: 102 nM.
`COCCCNC(=O)[C@H]1CNCCN1C(=O)c1ccccc1` yielded an XC50 of 802 nM.
The same measure for `Cc1cc(OCCCN2CCCCC2)ccc1NC(=O)COc1ccc(Cl)cc1C(=O)c1cc(C#N)cc(C(F)(F)F)c1`: 1030 nM; for `CC(C)C[C@H](NC(=O)c1cc(-c2ccc(C(C)(C)C)cc2)no1)C(=O)O.CC(C)C[C@H](NC(=O)c1conc1-c1ccc(C(C)(C)C)cc1)C(=O)O`: 186 nM.
For `Cn1c(NC(=O)c2ccc(CNC(=O)c3ccc(O)c(-c4ccc(Cl)c(Cl)c4)c3)cc2)nc2ccccc21`, the XC50 is 842 nM.
`Cc1cccc2nc(-c3ccc(-c4cccc(NC(=O)Nc5ccsc5)c4)s3)[nH]c12` yielded an XC50 of 542 nM.
The same measure for `O=C(Nc1ccc(Cl)c(-c2nc3ccccc3[nH]2)c1)c1ccc(-c2ccc(Cl)cc2)o1`: 785 nM.
Compound `Cc1noc(C)c1C(=O)N1CCc2cc3nccc(N4CCN5CCC[C@H]5C4)c3cc21` returned an XC50 of 874 nM.
Consider `Fc1ccc(CNc2ccc3ncc(-c4cccnc4)n3n2)cc1`, for which the XC50 was found to be 928 nM.
For the compound `O=C1CCCN1CCCNCc1ccc(-c2ccc(-c3nc4cc(F)ccc4[nH]3)s2)cc1`, the XC50 stood at 896 nM.
The same measure for `Cc1ccc(Cl)cc1NC(=O)c1c(-c2ccccc2Cl)noc1C`: 192 nM; for `CC(C)[C@H](NC(=O)c1ccc(O)c(-c2ccc(Cl)c(Cl)c2)c1)C(=O)NCCN1CCCC1`: 929 nM; for `CC(C)C1=NC(=O)c2cc([N+](=O)[O-])ccc2CN1`: 149 nM.
As to `COc1cc(C)ccc1N1CCN(CCCCNC(=O)c2ccc(NC(=O)c3ccc(Cl)cc3)cc2)CC1`, the XC50 came to 700 nM.
Compound `O=c1cc(NCCCNCc2cccc(SC(F)(F)F)c2)[nH]c2ccccc12` displayed an XC50 of 725 nM.
The same measure for `CNC(=O)NC1CCN(Cc2c(-c3cccs3)nc3ccccc3c2C(=O)N[C@@H](C)C2CCCCC2)CC1`: 219 nM; for `CCCCCc1cnc2nc(N)nc(N)c2c1`: 1230 nM; for `O=C(Nc1ccc(-c2csc(-c3nc4ccccc4[nH]3)c2)cc1)Nc1ccc(Cl)c(Cl)c1`: 402 nM.
The same measure for `COc1ccc2nc(/N=C3\NC(c4ccccn4)(c4ccccn4)C(=O)N3C)[nH]c2c1`: 586 nM.
In turn, `CC(C)NCc1ccc(-c2ccc(-c3nc4cc(C(F)(F)F)ccc4[nH]3)s2)cc1` registered an XC50 of 181 nM.
Take `O=C(Nc1nc(-c2ccccn2)cc2ccccc12)c1cccc(Cl)c1`: the XC50 was 754 nM.
For the compound `COc1ccccc1C1CC(c2ccc(Br)cc2)=NN1C(=O)c1ccccc1` (stereo not given), the XC50 was determined as 1110 nM.
Regarding `NC1CCN(Cc2cccc(-c3ccc(-c4nc5cc(F)ccc5[nH]4)cc3)c2)C1` (stereo not given), the XC50 worked out at 596 nM.
For `O=C1C(c2ccccc2)=C(Nc2ccc(OC(F)(F)F)cc2)c2ccccc21`, the XC50 is 107 nM.
In the case of `COc1cc(NC(=O)N2CCOC(CCN3CCC4(CCc5ccccc54)CC3)(c3ccc(Cl)c(Cl)c3)C2)cc(OC)c1` (stereo not given), the XC50 is 819 nM.
Compound `OCCN1CCN(c2nc(Nc3cccc(F)c3)c3cnn(-c4ccccc4)c3n2)CC1` returned an XC50 of 828 nM.
The same measure for `CC(=O)Nc1nc(C(=O)Nc2ccc(-c3ccc(-c4nc5ccccc5[nH]4)cc3)cc2)cs1`: 150 nM.
Compound `CS(=O)(=O)c1ccc(CNCc2ccc(-c3ccc(-c4nc5cc(C(F)(F)F)ccc5[nH]4)s3)cc2)cc1` gave an XC50 of 156 nM.
The same measure for `COc1cc(Nc2ncc3c(C)nc(-c4cccc(Nc5ccc(CN6CCS(=O)(=O)CC6)cc5)c4)n3n2)cc(OC)c1OC`: 865 nM; for `O=C(NCCCCCN1CCC(c2c[nH]c3ccccc23)CC1)Nc1cccc(Cl)c1`: 1020 nM; for `FC(F)(F)c1cccc(N=C(S)NN=Cc2ccccn2)c1`: 346 nM.
`O=C(NCc1ccc(F)cc1)Nc1cccc(-c2ccc(-c3nc4ccccc4[nH]3)cc2)c1` had an XC50 of 165 nM.
